In patent publication US9642922B2, “Caspase-triggered nano-aggregation probes and methods of use” (The Board of Trustees of the Leland Stanford Junior …, priority 2013, dated 2017):
Numbered stars: 1 amine (or outer) side, 2 acyl side, 3 side chain; on linkers, the order of the positions; unused ones are H or OH. Square brackets hold non-standard residues; d marks the D form. Peptide text beside a SMILES is read from it. * marks the point of attachment. DOTA = O=C(O)CN1CCN(CC(=O)O)CCN(CC(=O)*)CCN(CC(=O)O)CC1; X1 = O=C(C1CSC(c2nc3ccc(N[*:1])cc3s2)=N1)[*:2]; X3 = c1cnc2ccc(OCCCN*)cc2c1; SEt = CCS*

Tests used:
[1] = molecular target: T1, caspase-3 (Homo sapiens, UniProt P42574); assay: Incubation of PET tracer with recombinant caspase-3, radio-HPLC; assay type: biochemical; conditions: same condition
T1 sequence (P42574 29-175 limits assumed): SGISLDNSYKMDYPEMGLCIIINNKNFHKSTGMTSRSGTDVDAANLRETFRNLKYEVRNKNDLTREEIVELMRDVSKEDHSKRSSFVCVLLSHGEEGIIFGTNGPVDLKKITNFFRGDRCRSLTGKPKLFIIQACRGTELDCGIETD
T1 sequence (P42574 176-277 limits assumed): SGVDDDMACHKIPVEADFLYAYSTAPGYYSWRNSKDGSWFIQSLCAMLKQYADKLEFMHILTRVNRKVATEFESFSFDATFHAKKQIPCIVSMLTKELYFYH
Description: To evaluate the activatable PET tracer 1 for caspase-3 detection, it was first incubated with recombinant caspase-3 in buffer.

[2] = system: HeLa tumor xenograft; assay: PET imaging of HeLa tumor xenograft-bearing nude mice; assay type: in vivo, mouse
Description: One group of animals was scanned at baseline (before treatment) and 4 days post treatment with 0.2 mg doxorubicin injected into the tumor. On the day of scanning, the animals were moved from their housing area to the PET scanner around 1 h prior to the experiment. They were constrained shortly in a tail veiner and injected intravenously, with 440±97 μCi (16±3 MBq) [^18F]C-SNAT formulation. They were anesthetized with 2% isoflurane shortly before placement in an R4 microPET scanner (Siemens Medical Solutions, USA). The anesthesia were continued with 2% isoflurane doing 5 min of acquisition. Scans using the control tracer 1-D (173±73 μCi/9±4 Mbq in 200 μL formulation) were carried out in a similar manner using two groups (one baseline and one treated) instead of the same animals at baseline and after treatment. The images were reconstructed using a standard 2D reconstruction without attenuation correction.
The reconstructed images were analyzed by making two volumes of interest (VOI), one on the tumor and one located on the left shoulder corresponding to muscle/bone mixture. The percent of injected dose per gram tissue (% ID/g) was calculated in each VOI and the ratio between tumor and muscle uptake was calculated based on this uptake (uptake in tumor/uptake in muscle region). The effect of treatment was calculated as the difference in uptake of [^18F]C-SNAT at baseline and after treatment.
Evaluation of activatable PET tracer 1 and control tracer 1-D for PET imaging of caspase-3 activity in vivo was performed in HeLa tumor xenograft-bearing nude mice. Tumors were implanted and grown for a minimum of 10 d before receiving intratumoral injection of 0.2 mg DOX (20 μL). 1 or 1-D (5-15 MBq/135-405 μCi) was injected through the tail vein for PET imaging 4 d post treatment. Static PET scans (5 min) were performed 65, 125 and 182 mins post tracer injection.

[3] = Stability of PET tracers in mouse serum; assay type: in vitro ADME; conditions: 1 h incubation, 37° C.
Description: To the mouse serum (500 μL) 100 μL (approximately 100 μCi/3.7 MBq) of radioactive sample was added and the mixture was incubated at 37° C. At each time point, 100 μL of sample was taken and after mixing with 100 μL of acetonitrile was centrifuged at 9,400×g for 5 min. The resulting supernatants were collected, and an aliquot of each supernatant (100 μL) was diluted with 100 μL of water and analyzed via the same HPLC method used for quality control (fitted with a highly sensitive positron detector for radioactivity). The percent ratio of intact compound to the total radioactivity on the HPLC chromatogram was calculated as %=[(peak area for intact compound)/(total peak area)]×100.

[4] = Water proton r1 relaxivity measurement; assay type: physicochemical; conditions: 1 T
Description: Water proton r1 relaxivities of probe 15 and 1-ctrl (19) before and after caspase-3 incubation were then measured at 1, 1.5 and 3 T. For comparison, the isolated cyclized products 2-I and 2-II were also measured.
A series of solutions containing contrast agents with five different concentrations (0.05-0.5 mM) in Caspase buffer (pH 7.4) were treated with or without Casp-3 (50 nM) at 37° C. overnight. The solutions were placed in PCR tubes, bundled together, and MR-imaged at 1 T (Bruker Icon, Bruker BioSpin Corp.), […], 1.5 and 3 T (Signa HDx, GE Healthcare) at room temperature.
The scanning procedure began with a localizer and then consisted of a series of inversion-prepared fast spin echo scans, identical in all aspects (TR 8000 ms (6000 ms for Bruker Icon), TE minimum, field of view 6 cm, slice thickness 2 mm, matrix 128×128, NEX 1) except for the inversion time (TI) that was varied as: 4000, 2400, 1200, 800, 600, 400, 300, 200, 100, and 50 ms. For quantitative data analysis, the acquired MR images were transferred as DICOM images to an offline workstation, and signal intensities were extracted from each of the 5 samples at each of the 10 TI times by manual region of interest (ROI) placement and voxel averaging within the ROI.
Signal intensity versus TI relationships were fit to the following exponential T1 recovery model by non-linear least squares regression: SI (TI)=S0[1−2*exp(−TI/T1)+exp(−TR/T1)]. Relaxation rates (R1) were determined as 1/T1. Longitudinal relaxivities (r1, units of mM^−1s^−1) were calculated as the slope of R1 vs [Gd] after the determination of true Gd concentration of each sample by the ICP-MS measurement.

[5] = system: HeLa cells; assay: ICP-MS cellular uptake of Gd in HeLa cells; assay type: cell-based, human; conditions: 250 μM, 24 h
Description: The cellular uptake of Gd was studied by inductively-coupled plasma mass spectrometry (ICP-MS) analysis of the amount of Gd in viable and apoptotic cells after incubation with probe 15 (50-250 μM) for 24 h. […] This uptake enhancement was inhibitable by Z-VAD-fmk (50 μM), confirming the caspase-3-dependent accumulation of probe 15 in apoptotic cells.

[6] = molecular target: T1, caspase-3; assay: HPLC assay of caspase-3-triggered cyclization of MRI probe 15; assay type: biochemical; parameters: purchased Sigma; host or cells: E. coli
Description: The progression of caspase-3-triggered intramolecular cyclization of probe 15 in solution was investigated by incubation (200 μM) with recombinant human caspase-3 (50 nM) using high-performance liquid chromatography (HPLC). […] More than 90% of probe 15 and its disulfide bond reduced intermediates could be converted after 5 h (FIG. 27B).

[7] = system: subcutaneous HeLa tumors; assay: In vivo MR imaging of doxorubicin-treated HeLa tumors; parameters: species or system mouse; conditions: up to 4 h
Description: Evaluation of activatable contrast agent probe 15 for MR imaging of caspase-3 activity in vivo was performed in nude mice bearing subcutaneous HeLa tumors. Tumors were implanted and grown for 10-15 days before receiving intratumoral injections of two doses of 0.2 mg doxorubicin separated by 2 days. Probe 15 or 1-ctrl (19) (0.1 mmol kg^−1) was injected intravenously the day before treatment (baseline) and four days post-treatment (treated). Spin-echo T1-weighted multislice MR images at 1 T were recorded before (pre-contrast) and every 4 min after contrast agent administration (post-contrast), and scanning was carried out for 4 h post-contrast for each mouse. Much brighter MR signals (T1 contrast) were observed 40 and 120 min after injection with probe 15 in treated tumors as compared to that in baseline tumors (FIG. 29A), or in treated tumors with 1-ctrl (19) (FIG. 29B).
In vivo MR imaging was performed on an Aspect M2 1T permanent magnet (Aspect Imaging, Shoham, Israel) using a 40 mm Transmit/Receive mouse body coil. During imaging, the animals were anaesthetized with isofluorane and their respiration and body temperature were constantly monitored. Intravenous contrast injection at 0.1 mmol/kg concentration was administered in a 100 μL volume for every imaging session. Multi-slice (312 μm in-plane, 12 slices with 1 mm thickness) T1-weighted spin echo images (TE/TR=8.9/250 ms, matrix 128×128, FOV=40 mm, NEX=6) were acquired, one before contrast injection and then every 4 min up to 4 h after contrast injection. A 1 mM Dotarem reference tube was inserted in the field of view to enable inter-session variability correction during post-processing. Each animal underwent two imaging session; one before DOX treatment (baseline), and one after DOX treatment (treated).
Acquired MR data were transferred as DICOM images to an offline workstation and ImageJ (NIH) was used for post processing and quantitative image analysis. This consisted of manual segmentation of tumor ROI for each slice, slice-wise normalization of mean tumor signal intensity with the 1 mM Dotarem reference standard to account for inter-session variability, followed by combining these normalized, slice-wise values to generate mean volumetric tumor signal intensities (SI) for each time point.
Signal enhancement was calculated at each time point as the difference between the tumor SI at that time point and the tumor SI in the pre-contrast (t=0) dataset. SE(t)=SI(t)−SI(t=0); for each mouse, for every session
This metric was used to quantify the difference in SE between the baseline (before DOX treatment) session and the treated session for each mouse, as a means to tease out the difference between the two contrast agents, probe 1 and 1-cntl (19) over the time course of the imaging session. % D(t)=[SE(t,treated)−SE(t,baseline)]/SE(t,baseline); for each mouse.

[8] = system: HeLa cell pellets; assay: MRI T1 of HeLa cell pellets at 1 T; assay type: cell-based, human; conditions: 250 μM, 24 h
Excerpt: Thus, higher caspase-3 activity in apoptotic cells can trap probe 15 inside cells, resulting in higher MRI contrast for cell apoptosis imaging.

| SMILES | cleavage by caspase-3 [1] | uptake difference between before and after treatment ([2]; control tracer) | change of T/M ratio ([2]; mouse, in vivo) | uptake in treated and non-treated tumors compared with 1 ([2]; mouse, in vivo) | intact tracer in mouse serum [3] [%] | reduction of relaxivity after incubation with caspase-3 [4] [%] | uptake of Gd in STS-treated cells compared with probe 15 [5] | products observed after incubation with caspase-3 [6] | difference in SI enhancement between treated and baseline tumors [7] | r1 relaxivity without caspase-3 activation [4] [mM⁻¹ s⁻¹] | difference in T1 between STS-treated and non-treated cells [8] |
| --- | --- | --- | --- | --- | --- | --- | --- | --- | --- | --- | --- |
| CSCC(NC(=O)C(CC(=O)O)NC(=O)C(NC(=O)C(CCC(=O)O)NC(=O)C(CC(=O)O)NC(C)=O)C(C)C)C(=O)NC(Cc1cn(CCOCCOCCOCC[18F])nn1)C(=O)Nc1ccc2nc(C3=NC(C(=O)NCCCOc4ccc5ncccc5c4)CS3)sc2c1 (stereo not drawn) [1-D] | could not be cleaved by caspase-3 | less than 0.2 % ID/g | did not show significant increases | much lower than that of 1 | 90 |  |  |  |  |  |  |
| CCSSCC(NC(=O)C(CC(=O)O)NC(=O)C(NC(=O)C(CCC(=O)O)NC(=O)C(CC(=O)O)NC(C)=O)C(C)C)C(=O)NC(CCCCNC(=O)CN1CCN(CC(=O)[O-])CCN(CC(=O)[O-])CCN(CC(=O)[O-])CC1)C(=O)Nc1ccc2nc(C3=NC(C(=O)NCCCOc4ccc5ncccc5c4)CS3)sc2c1.[Gd+3] (stereo not drawn) [1-ctrl (19)] (Ac-DEVDC(SEt)K(DOTA)[X1]-X3; configuration not given here) |  |  |  |  |  | 14 | much lower uptake of Gd | only the DEVD peptide cleaved and disulfide reduced product was observed | no significant difference in SI enhancement |  |  |
| CNC[C@H](O)[C@@H](O)[C@H](O)[C@H](O)CO.O=C([O-])CN1CCN(CC(=O)[O-])CCN(CC(=O)O)CCN(CC(=O)[O-])CC1.[Gd+3] [Dotarem, reference compound] |  |  |  |  |  |  | much lower uptake of Gd |  |  | 4.8 | no significant reduction in T1 |
